Data reported in patent publication US9006212B2, “Compositions and methods for pest control” (Massachusetts Institute of Technology, priority 2009, dated 2015).

What was measured:
M. anisopliae conidia = assay: Antifungal assays and combinatorial cytotoxicity mapping on conidia; assay type: cell-based, Metarhizium anisopliae
Experimental: This mix was incubated for 18-24 hours at 25° C., then plated onto potato dextrose agar 100×15 mm plates and supplemented with 50 μg/mL ampicillin CFUs were counted following a 4-day incubation at 25° C. Femtoliter changes in conidial cell volume were directly measured by flow cytometry. Samples of M. anisopliae conidia in sodium acetate (0.1M, pH 5.5) were incubated in 384 well plates with samples from HPLC fractions in different combinations (F1+F1, F1+F2, F1+F3 . . . F2+F2, F2+F3 . . . F3+F3 . . . , 10 μL of each fraction) overnight at 25° C. and analyzed by flow cytometry. tGNBP-2 was depleted from 250 μL of each fraction as described above, and supernatants were collected and used for the assay.

tGNBP-2 [1] = assay: β(1,3)-glucanase activity assay (flow cytometric microsphere assay, zymogram); assay type: biochemical, N. corniger; conditions: dose/response, FIG. 5C
Experimental: (§1) FIG. 2 provides results from a microsphere-based flow cytometric assay for β(1,3)-glucanase activity. Laminarin was labeled at the reducing end with rhodamine green X-succinyl ester, stably adsorbed on 3.0μ-diameter polystyrene microspheres in carbonate/bicarbonate buffer at pH=9.6 and washed in 100 mM sodium acetate pH 5.5. Samples were then incubated with the fluorescent microspheres for varying time periods starting from 15 min and analyzed by flow cytometry. Purified β(1,3)-glucanase at 100 μg/mL (0.1 mU/mL) and sodium acetate buffer alone were used as positive and negative controls, respectively. Finally, fluorescence data were transformed to % activity and plotted vs. samples or concentrations. β(1,3)-glucanase activity was measured by a gel electrophoresis assay (39) and by a flow cytometric method developed (FIG. 2). Briefly, samples were run on Carboxymethyl Curdlan REmazol Brilliant Blue (CN-Curdlan-RBB, Lowe Biochemica, Germany). […] Samples were mixed with 1 μL of the microsphere suspension, incubated for 15-30 minutes at 37° C. and analyzed by flow cytometry. Commercially available purified β(1,3)-glucanase from Helix pomatia or Bacilus subtilis was used at 0.1 mU/mL as positive control and results were expressed as % activity of this control.

termite gut symbionts = conditions: reference 34; cited from earlier work
[2] = test system: termites infected with M. anisopliae; assay: In-vivo survival and exposure assays; set-up: species or system N. corniger
Experimental: Conidia (approx. 3×10^7/mL) were centrifuged at 12,000×g for 1 minute and then suspended in 600 μL 0.1% Tween 80 by vortexing. Two groups of 12 large workers were exposed to filter paper (Watman 5) moistened with these suspensions in 35×15 mm petri dishes for 20 hours. The filter paper was replaced with sterile water-moistened filter paper and dead termites were removed after a daily census of survivorship. tGNBP-2 treatment was performed with conidia suspended in a sample of the immunoprecipitated protein overnight at 25° C., followed by extensive washing in PBS containing 0.1% Tween 80. Dead termites were removed daily, surface sterilized with 70% ethanol and incubated in sterile plates at RT for 4 days for post mortem analysis. For exposure to laminarin or LPS, filter papers were moistened with 300 μL of 0.5 mg/mL or 5 mg/mL solutions of either carbohydrate. Termites were kept on moist filter paper for 24 hours prior to exposure with conidia (10^7/mL). Controls included termites that were not exposed to sugars and/or conidia (0.1% Tween 80). Data were analyzed by Mann-Whitney U test and Wilcoxon Signed Rank tests with Bonferroni corrections for multiple testing. Termite survival data were analyzed by Cox Regression Analysis. Flow histogram SDs were calculated using software produced half-peak coefficients of variance (% HPCV×mean). Data are presented as means±SD.

other β-glucanases = assay: β(1,3)-glucanase activity assay, tGNBP-2-depleted termite lysate; assay type: biochemical, N. corniger; conditions: tGNBP-2-depleted lysate, FIG. 5C
Experimental: as §1

[3] = test system: SAPK/JNK signaling in hemocytes; assay: Intracellular flow cytometry for SAPK/JNK phosphorylation in termite hemocytes; assay type: cell-based, N. corniger
Experimental: N. corniger workers, large workers or soldiers (whole termites or isolated tissues) were surface sterilized (brief wash with 5% hypochlorite and 3 washes with sterile water) and homogenized in acetate buffer (200 mM, pH 5.0, 4 μL/termite) with Biomasher® columns (pore size 80-145μ, […], San Carlos, Calif.) according to the manufacturer's instructions. Cuticular washes were prepared by gently agitating chilled workers in 0.1% Tween 80 for 5 seconds (10 μL/worker). Wash samples were concentrated with a P10 Microcon® filter (Millipore, Billerica, Mass.). Termite hemocytes were collected from hemolymph drawn from 10 chilled N. corniger workers (1 μL/termite) using a micropipette and kept in ice-cold Burns-Tracy saline as described previously (37). Whole cell preparations were obtained by gentle trituration of termites in ice-cold Burns-Tracy saline. Hemocyte staining was performed in 0.1% w/v BSA, 0.01% w/v NaN3 in PBS, 30 min on ice per antibody with a single wash with buffer between antibodies (38). Primary antibodies: anti-tGNBP-2 (5 μg/mL) or rabbit IgG (5 μg/mL, Sigma, St. Louis, Mo.); secondary antibody: anti-rabbit PE (1:400, Invitrogen, Carlsbad, Calif.). […] Flow cytometry was performed on a Beckman-Coulter Cell Lab QuantaTM SC MPL-automated flow cytometer and analyzed with Quanta AnalysisTM software.

tGNBP-2 expression [4] = assay: Induction of tGNBP-2 by laminarin challenge on isolated termite cells, Western blot; assay type: cell-based, N. corniger; conditions: 20 mM, FIG. 5E
Experimental: N. corniger workers, large workers or soldiers (whole termites or isolated tissues) were surface sterilized (brief wash with 5% hypochlorite and 3 washes with sterile water) and homogenized in acetate buffer (200 mM, pH 5.0, 4 μL/termite) with Biomasher® columns (pore size 80-145μ, […], San Carlos, Calif.) according to the manufacturer's instructions. Cuticular washes were prepared by gently agitating chilled workers in 0.1% Tween 80 for 5 seconds (10 μL/worker). Wash samples were concentrated with a P10 Microcon® filter (Millipore, Billerica, Mass.). Termite hemocytes were collected from hemolymph drawn from 10 chilled N. corniger workers (1 μL/termite) using a micropipette and kept in ice-cold Burns-Tracy saline as described previously (37). Whole cell preparations were obtained by gentle trituration of termites in ice-cold Burns-Tracy saline. Anti-tGNBP-2 antibodies were raised in rabbits and purified by standard methods (GenScript, Piscataway, N.J.). Antibodies were covalently linked to 1.0μ diameter Dynabeads® MyOneTM carboxylic acid functionalized magnetic beads (Invitrogen) according to the manufacturer's instructions. Fresh termite extract was diluted 1:1 with IP buffer (25 mM Tris-HCl pH 7.6, 150 mM NaCl, 1% v/v NP-40, 1% v/v protease inhibitor cocktail), and incubated with beads for 1 hour at RT. […]

tGNBP-2 [5] = assay: In-vitro binding interference assay with FITC-labeled LPS; set-up: species or system N. corniger; conditions: increasing concentrations, FIG. 5A
Experimental: Isolated tGNBP-2 or rhCD14 (R&D Systems, Minneapolis, Minn.) were linked to 3.0μ diameter polystyrene beads (Polysciences) by a 3-hour incubation in boric acid (0.1M, pH 8.5) followed by 3 washes in cold PBS containing 0.1% v/v rabbit serum. Formaldehyde-inactivated pathogenic strains were labeled with FITC as previously described (41). Beads were incubated with labeled pathogens in buffer at 37° C. for 30 minutes and analyzed by flow cytometry. For interference assays, tGNBP-2-adsorbed beads were incubated with either LPS or laminarin at various concentrations, then directly stained with FITC-labeled LPS (Sigma) and analyzed by FACS.

tGNBP-2 expression [6] = assay: tGNBP-2 expression following exposure of termites to LPS or laminarin; assay type: in vivo, N. corniger; conditions: 0.5 or 5 mg/mL, FIG. 4F
Experimental: Anti-tGNBP-2 antibodies were raised in rabbits and purified by standard methods (GenScript, Piscataway, N.J.). Antibodies were covalently linked to 1.0μ diameter Dynabeads® MyOne™ carboxylic acid functionalized magnetic beads (Invitrogen) according to the manufacturer's instructions. Fresh termite extract was diluted 1:1 with IP buffer (25 mM Tris-HCl pH 7.6, 150 mM NaCl, 1% v/v NP-40, 1% v/v protease inhibitor cocktail), and incubated with beads for 1 hour at RT. Beads were isolated, washed with IP buffer, and eluted with a commercial neutral pH buffer (Pierce, Rockford, Ill.). Eluate was desalted and concentrated using a centrifugal column (Vivaspin 10K, Sartorius, Goettingen, Germany) and reconstituted in sodium acetate (0.1M, pH 5.5). SDS-PAGE and western blots were performed and developed by standard procedures; loading amounts were validated by BCA assay. Anti-tGNBP-2 was used at 2.5 μg/mL followed by anti-rabbit HRP (Cell Signaling) at 1:1000. Blots were visualized on a Kodak ImageStation 2000R. […] Conidia (approx. 3×10^7/mL) were centrifuged at 12,000×g for 1 minute and then suspended in 600 μL 0.1% Tween 80 by vortexing. Two groups of 12 large workers were exposed to filter paper (Watman 5) moistened with these suspensions in 35×15 mm petri dishes for 20 hours. […]

Compound	direct toxic effect on conidia (M. anisopliae conidia)	blocking of the β(1,3)-glucanase activity of tGNBP-2 (tGNBP-2 [1])	blocking of gut symbiont pathways for polysaccharide utilization (termite gut symbionts)	susceptibility to infection with tGNBP-2-treated conidia ([2]; conidia treated with isolated tGNBP-2 prior to infection)	mortality of termites in the absence of active infection ([2]; no infection)	mortality of termites infected with M. anisopliae ([2]; treated for 24 hours prior to infection, FIG. 6)	effect on other β-glucanases (other β-glucanases)	hemocyte population whose activation is affected ([3]; two hemocyte populations expressing tGNBP-2)	SAPK/JNK phosphorylation activation response of hemocytes ([3]; β(1,3)-D-glucan challenge, FIG. 5D)	induction of tGNBP-2 by laminarin challenge (tGNBP-2 expression [4])	interference with fluorescent LPS binding to bead-linked tGNBP-2 (tGNBP-2 [5])	resistance to M. anisopliae infection ([2]; termites exposed to 0.5 or 5 mg/mL for 24 hours prior to conidia, FIG. 4E)	tGNBP-2 expression following exposure (tGNBP-2 expression [6])
O=C1O[C@H](CO)[C@@H](O)[C@H](O)[C@H]1O [GDL, D-δ-gluconolactone]	no direct toxic effect	efficiently blocked	not blocked	restored susceptibility to infection	caused accelerated mortality	accelerated mortality	left other β-glucanases intact	affected only the activation of granular hemocytes	inhibited this activation response	blocks induction	–	–	–
laminarin	–	–	–	–	–	–	–	–	–	–	does not interfere	improved resistance	significant upregulation
